Reference: US10874638B2, “Methods and compositions for modulating hormone levels” (priority 2014, dated 2020)
Like-named read-outs stand apart in the source and are kept apart here.

Assays:
[1] = system: ovariectomized mature female rats; test: Ovariectomized mature female rat model; format: in vivo; conditions: for uterine wet weight decrease after OVX surgery / bone density decrease caused by OVX (uCT trabecular bone in the femur, pQCT distal femur): daily for 8 weeks, 17α-ethynylestradiol 0.03 mg/kg/day; for uterine wet weight decrease after OVX surgery: Compound 1 0.01, 0.05, 0.25 mg/kg (all doses); for bone density decrease caused by OVX (uCT trabecular bone in the femur, pQCT distal femur): Compound 1 0.01, 0.05, 0.25 mg/kg
Description: Ovariectomized mature female rats are used to characterize primarily bone activity of the compositions provided herein or the individual SERM or SARM compounds. A sham group is used as control. The model can be run in either maintenance mode where the animals are dosed one day after the ovariectomy or restoration mode where the animals are dosed seven to eight weeks after the surgery. The rats are scanned by dual energy x-ray absorptiometry and sorted into experimental groups based upon femoral bone mineral content (BMC). Three dosages of testing compositions/compounds are administered orally once a day for 4, 8, or 12 weeks and estradiol and testosterone are administered subcutaneously to the reference groups. Animals received subcutaneous injections of fluorochrome markers for bone histomorphometric analysis. Alizarian Red S was prepared as a 3% solution and given at a dose of 30 mg/kg at the time of the baseline scan. Calcein was administered 10 days and 3 days prior to necropsy.
Approximately 24 hours after the last dose, blood is collected and the gastrocnemius muscle, plantaris muscle, uterus, clitoral glands, clitoris and inguinal fat pads were isolated, blotted and weighed individually. The left femur and lumbar vertebra L5 are wrapped in saline-soaked gauze and stored at −20° C. for biochemical analysis. The right femur and lumbar vertebrae L3-L4 are collected and stored in 70% ethanol for histomorphometry. The right tibia is collected in formalin for histological analysis. The left tibia is collected on dry ice and stored at −20° C. for measurement of alkaline phosphatase activity.
BMC, bone mineral density (BMD) and bone length are measured by pDEXA on an entire femur. The coefficient of variation for repeated measurement of the isolated femur is less than 0.4% for the BMC and the BMD measurements. […] Serum osteocalcin, a marker for bone turnover, and alkaline phosphatase derived from the tibial periosteum are also measured. Whole femurs are collected for biomechanical analysis and thawed at room temperature prior to testing. Peak load and peak displacement are measured directly from the load cell and the crosshead, respectively. Stiffness is calculated from the slope of the linear region of the load/displacement curve. Lumbar vertebra L5 is also measured in the mechanical testing for bone strength.
Bone histomorphometry is performed to indicate growth of the new bone during the study. The section from the lumbar vertebral bodies is used for histomorphometric indices of cancellous bone, while the sections of the femur mid-shafts are used for histomorphometric indices of cortical bone.
Body weight, gastrocnemius weight and plantaris weight changes are measured indicating anabolic activity of the testing compositions/compounds on skeletal muscle. Inguinal fat pad weight is used as a representative fat pad to assess the effects of the testing compounds on body fat. Clitoral gland and clitoral weights are measured to assess the virilizing effect of drugs.
In the maintenance node of this model, (5R,6S)-6-phenyl-5-[4-(2-pyrrolidin-1-ylethoxy)phenyl]-5,6,7,8-tetrahydronaphthalen-2-ol (Compound 1) was dosed daily at 0 (sham), 0 (OVX), 0.01, 0.05, and 0.25 mg/kg for 8 weeks and 17α-ethynylestradiol was dosed at 0.03 mg/kg/day. […] Micro-computerized tomography (uCT) measured the density and connectivity of the trabecular bone in the femur and pQCT measured at the distal femur.
In the restoration mode of this osteopenic female rat model, 4-(2(R)-(1(S)-hydroxyl-2,2,2-trifluoroethyl)-pyrrolidinyl)-2-trifluoromethylbenzonitrile (Compound 2, Formula I, R^1═CF3, R^2═R^3═H) was dosed at 0 (sham), 0 (OVX), 0.03, 0.3, and 3 mg/kg orally for 12 weeks. […] Compound 2 suppressed cancellous bone turnover while increasing trabecular bone volume and increasing bone mineral density at the lumbar spine.
In the same experiment of Compound 2, another SARM compound, ostarine, was dosed at 0.03, 0.3, and 3 mg/kg/day orally for 12 weeks.

[2] = system: orchidectomized male Sprague-Dawley rat; test: Orchidectomized mature male rat model; conditions: based on AUC-activity relationship analysis
[3] = molecular target: T1, 5α-reductase type I isoenzyme (Homo sapiens, UniProt P18405); conditions: cited from earlier work
T1 sequence (P18405 1-259): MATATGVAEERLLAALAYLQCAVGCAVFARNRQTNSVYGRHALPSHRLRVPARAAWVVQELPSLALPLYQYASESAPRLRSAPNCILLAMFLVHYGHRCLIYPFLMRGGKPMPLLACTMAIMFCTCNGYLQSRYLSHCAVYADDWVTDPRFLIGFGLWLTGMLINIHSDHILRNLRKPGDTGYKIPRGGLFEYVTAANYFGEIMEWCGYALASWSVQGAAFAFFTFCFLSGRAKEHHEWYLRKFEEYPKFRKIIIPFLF

prostate DHT level = conditions: in clinic; up to; cited from earlier work
[4] = system: intact cynomolgus male and female monkeys; test: Intact cynomolgus monkey model; format: in vivo; conditions: females, Day 90
ER = conditions: read-out: IC50 binding affinity to ER; cited from earlier work
postmenopausal women = conditions: cited from earlier work
healthy male subjects = format: in vivo, human
Description: In a random, double-blind, placebo controlled study, Compound 1 was given orally to healthy male subjects age from 18 to 45 years. Subjects received either placebo or Compound 1 under fasted/fed conditions at single escalating doses of 0, 1, 3, 10, 30, and 100 mg. Total serum T level was determined at days 0, 1, 7, 14, 21, and 28.

[5] = system: intact cynomolgus male and female monkeys; test: Intact cynomolgus monkey model; format: in vivo; conditions: Day 90
Description: Intact cynomolgus male and female monkeys are used to assess of the effects of the compositions provided herein or the individual SERM or SARM compounds on hypothalamic-pituitary-gonadal axis and lipid profile. All animals are dosed via oral or nasol gavage once daily for consecutive days with either vehicle or testing articles of different doses. The first day of dosing is designated Day 1 for all animals. Blood samples are collected for analysis of LH, FSH, T, Estrodiol, total cholesterol, triglycerides, cortisol, and coagulation parameters included prothrombin time (PT) and activated partial thromboplastin time on Days −3 and end of the study.
In this model, Compound 2 was dosed at 0, 5, 50, 150, and 450 mg/kg/day for 14 days. […] In a separate study, the compound was dosed at 0, 3, 10, 30, 120, and 500 mg/kg/day for 30 days. […] Serum testosterone was suppressed in males as indicated by lower 75th, 50th, and 25th percentile values in samples from treated monkeys than vehicle controls.
In this model, Compound 1 was dosed at 0, 1, 5, and 15 mg/kg/day for 3 months.

[6] = OVX rat, subcutaneous reference
[7] = 100 mg fasted, single oral dose

CCC(=O)O[C@H]1CC[C@H]2[C@@H]3CCC4=CC(=O)CC[C@]4(C)[C@H]3CC[C@]12C [Testosterone propionate]
clitoral gland and clitoral weights (virilizing effect) ([1]; OVX rat, 1 mg/kg daily dose): significantly increases

17α-ethynylestradiol
uterine wet weight decrease after OVX surgery ([1]; maintenance mode): completely blocked | bone density decrease caused by OVX (uCT trabecular bone in the femur, pQCT distal femur) ([1]; maintenance mode): prevent the bone density decrease

C[C@](O)(COc1ccc(C#N)cc1)C(=O)Nc1ccc(C#N)c(C(F)(F)F)c1 [ostarine]
exposure at maximal efficacy relative to Compound 2 ([1]; restoration mode, higher exposure = decreased potency): ~10 fold | potency relative to Compound 2 (fold less) [2]: ~10 fold

CC(C)(C)NC(=O)[C@H]1CC[C@H]2[C@@H]3CC[C@H]4NC(=O)C=C[C@]4(C)[C@H]3CC[C@]12C [finasteride, N-(1,1-dimethylethyl)-3-oxo-(5α,17β)-4-azaandrost-1-ene-17-carboxamide]
IC50 [3]: 42 nM | reduction of prostate DHT level (prostate DHT level): 85-90%

C[C@]12CC[C@H]3[C@@H](CCC4=CC(=O)CC[C@@]43C)[C@@H]1CC[C@@H]2O [Testosterone, testosterone]
femur bending stiffness [1, 6]: increases | femur bending strength [1, 6]: does not significantly increase

Oc1ccc2c(c1)CC[C@H](c1ccccc1)[C@@H]2c1ccc(OCCN2CCCC2)cc1 [Compound 1, (5R,6S)-6-phenyl-5-[4-(2-pyrrolidin-1-ylethoxy)phenyl]-5,6,7,8-tetrahydronaphthalen-2-ol]
serum cholesterol increase, of the corresponding Day −7 values ([4]; 1 mg/kg/day for 3 months): 26% | serum cholesterol increase, of the corresponding Day −7 values ([4]; 5 mg/kg/day for 3 months): 16% | IC50 (ER): […] | beneficial effects in postmenopausal women (postmenopausal women): reduced risks of nonvertebral and vertebral fractures, ER-positive breast cancer, coronary heart disease, and stroke | Changes of T levels from baseline, Day 1 2 h (healthy male subjects; 1 mg fasted, single oral dose): 9.9% | Changes of T levels from baseline, Day 29 (healthy male subjects; 1 mg fasted, single oral dose): 18% | Changes of T levels from baseline, Day 1 2 h (healthy male subjects; 3 mg fasted, single oral dose): 13% | Changes of T levels from baseline, Day 22 (healthy male subjects; 3 mg fasted, single oral dose): 68% | Changes of T levels from baseline, Day 29 (healthy male subjects; 3 mg fasted, single oral dose): 50% | Changes of T levels from baseline, Day 1 2 h (healthy male subjects; 10 mg fasted, single oral dose): −0.5% | Changes of T levels from baseline, Day 15 (healthy male subjects; 10 mg fasted, single oral dose): 67% | Changes of T levels from baseline, Day 22 (healthy male subjects; 10 mg fasted, single oral dose): 81% | Changes of T levels from baseline, Day 29 (healthy male subjects; 10 mg fasted, single oral dose): 29% | Changes of T levels from baseline, Day 1 2 h (healthy male subjects; 30 mg fasted, single oral dose): −6.9% | Changes of T levels from baseline, Day 1 12 h (healthy male subjects; 30 mg fasted, single oral dose): −64% | Changes of T levels from baseline, Day 8 (healthy male subjects; 30 mg fasted, single oral dose): 39% | Changes of T levels from baseline, Day 15 (healthy male subjects; 30 mg fasted, single oral dose): 71% | Changes of T levels from baseline, Day 22 (healthy male subjects; 30 mg fasted, single oral dose): 78% | Changes of T levels from baseline, Day 29 (healthy male subjects; 30 mg fasted, single oral dose): 81% | Changes of T levels from baseline, Day 1 12 h (healthy male subjects; [7]): −50% | Changes of T levels from baseline, Day 8 (healthy male subjects; [7]): 84% | Changes of T levels from baseline, Day 15 (healthy male subjects; [7]): 104% | Changes of T levels from baseline, Day 22 (healthy male subjects; [7]): 92% | Changes of T levels from baseline, Day 29 (healthy male subjects; [7]): 114% | Changes of T levels from baseline, Day 1 12 h (healthy male subjects; 100 mg fed, single oral dose): −48% | Changes of T levels from baseline, Day 8 (healthy male subjects; 100 mg fed, single oral dose): 86% | Changes of T levels from baseline, Day 15 (healthy male subjects; 100 mg fed, single oral dose): 89% | Changes of T levels from baseline, Day 22 (healthy male subjects; 100 mg fed, single oral dose): […] | Changes of T levels from baseline, Day 29 (healthy male subjects; 100 mg fed, single oral dose): 91% | stimulation of T production (pharmacokinetic/pharmacodynamic profile in men) (healthy male subjects; men): superior potency and prolonged mechanism of action | total serum T level (healthy male subjects; single escalating oral doses 1 to 100 mg): dose related increase | duration of the elevation of T level (healthy male subjects; single oral dose, healthy male subjects): […] | bone strength on the lumbar vertebrae ([1]; maintenance mode, 8 weeks daily dosing): maintained the bone strength | uterine wet weight decrease after OVX surgery ([1]; maintenance mode): block the decrease but at much less extend | bone density decrease caused by OVX (uCT trabecular bone in the femur, pQCT distal femur) ([1]; maintenance mode): prevent the bone density decrease | triglycerides ([5]; especially in males, 1, 5, 15 mg/kg/day for 3 months): significant increase | serum cholesterol increase, of the corresponding Day −7 values ([5]; females, 15 mg/kg/day for 3 months): 7.8% | serum cholesterol ([5]; males, 1, 5, 15 mg/kg/day for 3 months): did not change
